# Experimental data published in publication PMC7448123, “Ru(II) Complexes Bearing O, O-Chelated Ligands Induced Apoptosis in A549 Cells through the Mitochondrial Apoptotic Pathway” (Bioinorganic Chemistry and Applications, 2020).
# Assays:
# [1] = Stability towards GSH and BSA by UV-Vis absorption; assay type: physicochemical; settings: 12 h, 37 °C, PBS buffer (pH 7.4)
# Protocol: Investigating the hydrolysis in the presence of biorelevant molecules is very important to assess the chemical stability and biological activities of these title complexes.
# Figure S8. UV/vis absorption of Ru-1 in the absence and presence of (A) GSH or (B) BSA. All spectra were acquired 12 h after GSH or BSA addition at 37 °C in PBS buffer (pH 7.4).
# Figure S9. UV/vis absorption of Ru-2 in the absence and presence of (A) GSH or (B) BSA. All spectra were acquired 12 h after GSH or BSA addition at 37 °C in PBS buffer (pH 7.4).
# A549 cells [2] = assay: Western blotting of apoptosis, Bcl-2 family and DNA damage proteins; assay type: cell-based, human
# Protocol: Glyceraldehyde-3-phosphate dehydrogenase (GAPDH) was used as an internal control. The protein concentrations were determined by BCA Protein Assay Kit.
# zebrafish embryos = assay: In vivo toxicity on developing zebrafish embryos
# [3] = test system: BEAS-2B (immortalized human bronchial epithelial cells); assay: MTT cytotoxicity assay, normal BEAS-2B; assay type: cell-based; settings: 48 h
# A549 cells [4] = assay: Comet assay (single-cell gel electrophoresis), DNA damage; assay type: cell-based, human; settings: 10 μM, 12 h
# Protocol: Single-cell gel electrophoresis was performed to detect DNA damage, as previously described. Comet assay was performed according to the manufacturer's instructions. DNA was stained with SYBR Green I (Trevigen) and imaged under an inverted fluorescence microscope.
# Excessive intracellular ROS can activate DNA damaged sensor proteins and lead to DNA damage, an essential hallmark of cell apoptosis. Indeed, the DNA damage effect has been observed in many previously developed Ru(II) complexes. To determine whether or not these complexes can induce DNA damage, the single-cell gel electrophoresis assay (comet assay) was conducted in our study. […] Also, the comet assay (DNA fragments appearance) could serve as a mark for apoptosis assessment. As shown in Figure 6(a), in the control group, there was no comet-like cell observed. […] Increasing the concentration to 20 μM recorded markedly higher levels of comet tails, showing that more DNA fragmentation has occurred.
# [5] = test system: HeLa (human cervical cancer); assay: MTT cytotoxicity assay, HeLa; assay type: cell-based; settings: 48 h
# [6] = test system: A549 (human lung carcinoma); assay: MTT cytotoxicity assay, A549; assay type: cell-based; settings: 48 h, MTT
# A549 cells [7] = assay: Cellular uptake and subcellular distribution by ICP-MS; assay type: cell-based, human
# Protocol: A549 cells were seeded into six-well plates (5.0 × 10^5 cells per well) and grown overnight at 37°C in a 5% CO2 incubator. The cells were incubated with the different concentrations (5, 10, 15, and 20 μM) of Ru(II) complexes for different time intervals (1, 3, and 6 h). After the incubation, the cells were harvested and washed twice with PBS. Cell Mitochondria Isolation Kit was used to extract the nuclear, mitochondrial, and cytoplasmic fractions of the A549 cells. The pellets were digested with 3 mL concentrated nitric acid and 1 mL perhydrol for 24 h and then diluted to 5 mL with ultrapure water. Finally, ICP-MS was used to determine the amount of Ru(II) complexes uptaken by A549 cells.
# It is generally acknowledged that the cellular uptake feature of transition metal-based compounds is an essential factor for their biological activities. As repeatedly reported by previous ruthenium complex-related studies, the more cellular uptake results in higher cytotoxicity. The cellular ruthenium concentration was determined by using ICP-MS after 1, 3, and 6 h of exposure to 5, 10, 15, and 20 μM Ru(II) complexes (Figure 2), respectively, and the results were reported as ng of ruthenium per 10^6 cell number.
# A549 cells [8] = assay: Hoechst 33342 nuclear staining; assay type: cell-based, human; settings: 20 μΜ, 24 h
# Protocol: (§1) First, A549 cells were incubated in six-well plates for 12 h and then exposed to Ru(II) complexes for 24 h. After incubation, cell nuclei were stained with Hoechst 33342 (5 μg/mL) for 10 min, washed twice with PBS, and then photographed using an inverted fluorescence microscope. […] The suspension was stained with 5 μL Annexin V-FITC and 10 μL PI at room temperature for 15 min and then analyzed using the flow cytometer.
# [9] = Solution stability by UV-Vis absorption in water and CH3CN; assay type: physicochemical; settings: 298 K, over 24 h, 20 μM
# Protocol: (N-N = dip, dmp) and salicylic acid in the presence of sodium hydroxide. The crude product was purified by chromatography over alumina. The obtained compounds were analyzed by elemental analysis, ESI-MS, ^1H NMR, FTIR, and UV-Vis absorption spectroscopy, and the results were shown in Figures S1–S7 in Supplementary Materials. […] In the UV-visible spectral regions, both complexes consist of two well-resolved absorption bands. In the visible region, these two complexes present a strong MLCT transition at 500–600 nm attributed to the overlap Ru(dπ)-dip or dmp (π^∗) and Ru(dπ)-SA (π^∗). The intense band occurring between 250 nm and 300 nm is attributed to an intra-ligand (IL) π-π^∗ transition by comparing with the spectra of other Ru(II)-polypyridyl complexes.
# MCF-7 (breast cancer) = assay: MTT cytotoxicity assay, MCF-7; assay type: cell-based, human
# A549 cells [10] = assay: Annexin V-FITC/PI apoptosis flow cytometry; assay type: cell-based, human; settings: 24 h
# Protocol: as §1
# A549 cells [11] = assay: Intracellular ROS level, DCFH-DA flow cytometry; assay type: cell-based, human; settings: 20 μM, 12 h
# Protocol: The mitochondrial membrane potential (MMP) of A549 cells was analyzed by using an inverted fluorescence microscope and flow cytometry. […] For microscope observation, the collected cells were incubated in complete medium containing JC-1 (10 μg/mL) for 30 min and washed with PBS twice and then imaged by an inverted fluorescence microscope (Nikon, Japan). For flow cytometry analysis, the cells were trypsinized and washed twice with PBS and then incubated in 500 μL PBS containing JC-1 (10 μg/mL) for 30 min at 37°C. The cells were analyzed by flow cytometer immediately. The intracellular ROS level of A549 cells was detected after DCFH-DA stain, as illustrated in our new publication.
# Increasing intracellular ROS levels can trigger cell apoptosis. […] To explore the roles of ROS in Ru(II) complex-induced cell apoptosis, we detected intracellular ROS levels by using an inverted fluorescence microscope and flow cytometry after staining A549 cells with DCFH-DA fluorescent dye.
# [12] = test system: HepG2 (human hepatocellular carcinoma); assay: MTT cytotoxicity assay, HepG2; assay type: cell-based
# E. histolytica = test system: E. histolytica; set-up: method as in PMID 17154516; settings: read-out: IC50 anti-E. histolytica activity in vitro; cited from earlier work
smiles,measurement,setting,value
"O=C1[O][Ru][O]c2ccccc21.c1ccc(-c2ccnc3c2ccc2c(-c4ccccc4)ccnc23)cc1.c1ccc(-c2ccnc3c2ccc2c(-c4ccccc4)ccnc23)cc1 [Ru-1, [Ru(dip)2(SA)]]",change in characteristic absorption with excessive GSH or BSA (stability),[1],no significant change
same,cytochrome c expression in cytosol,A549 cells [2],apparent enhancement
same,expression levels of antiapoptotic proteins Bcl-2 and Bcl-xl,A549 cells [2],downregulated
same,expression of proapoptotic protein Bax and Bad,A549 cells [2],increased expression
same,phosphorylation levels of Chk1 and Chk2,A549 cells [2],increased
same,"expression of cleaved-PARP, cleaved caspase-3/8/9","A549 cells [2]; 24 h, concentration-dependent",increased
same,expression of total caspase-3/8,"A549 cells [2]; 24 h, concentration-dependent",decreased
same,"phosphorylation levels of ATM, ATR, histone, and p53",A549 cells [2]; concentration-dependent,upregulation
same,cumulative hatch rate and lethality rate,zebrafish embryos; 12.5 μM,no difference compared with those of the control group
same,lethality rate,"zebrafish embryos; 100 μM, after 96 h",lower than 35%
same,cumulative hatch,"zebrafish embryos; 200 μM, after 72 h treatment",lower than 70%
same,unhealthy features observed,"zebrafish embryos; 200 μM, at 96 h",pericardial cysts and spine curvature
same,side effects,zebrafish embryos; 12.5 to 50 μM,no apparent side effects
same,development of embryos,"zebrafish embryos; concentration lower than 50 μM, after 96 h",all zebrafish embryos can develop into juvenile zebrafish
same,malformation,"zebrafish embryos; concentration lower than 100 μM, at 96 h",no malformation was observed
same,IC50,[3],54.3 ± 3.4 µM
same,"DNA fragmentation, comet assay",A549 cells [4],well-formed comet tails
same,IC50,[5],20.1 ± 1.3 µM
same,IC50,[6],11.3 ± 1.1 µM
same,Intracellular content of Ru,"A549 cells [7]; 5 μM, 1 h",120.3 ± 9.5 ng Ru/10^6 A549 cell number
same,Intracellular content of Ru,"A549 cells [7]; 5 μM, 3 h",168.5±13.0 ng Ru/10^6 A549 cell number
same,Intracellular content of Ru,"A549 cells [7]; 5 μM, 6 h",241.2±10.6 ng Ru/10^6 A549 cell number
same,Intracellular content of Ru,"A549 cells [7]; 10 μM, 1 h",146.3±13.7 ng Ru/10^6 A549 cell number
same,Intracellular content of Ru,"A549 cells [7]; 10 μM, 3 h",216.8±16.9 ng Ru/10^6 A549 cell number
same,Intracellular content of Ru,"A549 cells [7]; 10 μM, 6 h",299.4±1.2 ng Ru/10^6 A549 cell number
same,Intracellular content of Ru,"A549 cells [7]; 15 μM, 1 h",178.5±15.4 ng Ru/10^6 A549 cell number
same,Intracellular content of Ru,"A549 cells [7]; 15 μM, 3 h",246.7±25.4 ng Ru/10^6 A549 cell number
same,Intracellular content of Ru,"A549 cells [7]; 15 μM, 6 h",343.8±17.0 ng Ru/10^6 A549 cell number
same,Intracellular content of Ru,"A549 cells [7]; 20 μM, 1 h",215.9±19.4 ng Ru/10^6 A549 cell number
same,Intracellular content of Ru,"A549 cells [7]; 20 μM, 3 h",312.4±21.5 ng Ru/10^6 A549 cell number
same,Intracellular content of Ru,"A549 cells [7]; 20 μM, 6 h",432.5 ± 12.4 ng Ru/10^6 A549 cell number
same,Subcellular distribution,"A549 cells [7]; 20 μM, nuclear, mitochondrial and cytoplasmic fractions","mostly accumulated in the cell nucleus, followed by mitochondria"
same,"apoptotic features, Hoechst 33342 staining",A549 cells [8],"chromatin condensation, nuclear fragmentation, and plasma membrane blebbing"
same,change in UV-Vis absorption spectra (solution stability),[9],no significant change
same,IC50,MCF-7 (breast cancer); 48 h,29.5 ± 2.2 µM
same,early apoptotic cells (I4),A549 cells [10]; 5 μM,14.71%
same,late apoptotic/necrotic cells (I2),A549 cells [10]; 5 μM,7.13%
same,early apoptotic cells (I4),A549 cells [10]; 10 μM,16.27%
same,early apoptotic cells (I4),A549 cells [10]; 20 μM,21.57%
same,late apoptotic/necrotic cells (I2),A549 cells [10]; 20 μM,20.78%
same,MFI higher than the control group,A549 cells [11],about 3.0 fold
same,IC50,[12]; 48 h,15.4 ± 1 µM
"Cc1ccc2ccc3ccc(C)nc3c2n1.Cc1ccc2ccc3ccc(C)nc3c2n1.O=C1[O][Ru][O]c2ccccc21 [Ru-2, [Ru(dmp)2(SA)]]",change in characteristic absorption with excessive GSH or BSA (stability),[1],no significant change
same,IC50,[3],48.1 ± 3.7 µM
same,"DNA fragmentation, comet assay",A549 cells [4],well-formed comet tails
same,IC50,[5],32.5 ± 2.4 µM
same,IC50,[6],30.1 ± 1.2 µM
same,Intracellular content of Ru,"A549 cells [7]; 5 μM, 1 h",85.4 ± 9.3 ng Ru/10^6 A549 cell number
same,Intracellular content of Ru,"A549 cells [7]; 5 μM, 3 h",112.4±9.5 ng Ru/10^6 A549 cell number
same,Intracellular content of Ru,"A549 cells [7]; 5 μM, 6 h",142.5±9.6 ng Ru/10^6 A549 cell number
same,Intracellular content of Ru,"A549 cells [7]; 10 μM, 1 h",99.4±9.6 ng Ru/10^6 A549 cell number
same,Intracellular content of Ru,"A549 cells [7]; 10 μM, 3 h",134.6±8.3 ng Ru/10^6 A549 cell number
same,Intracellular content of Ru,"A549 cells [7]; 10 μM, 6 h",173.2±8.9 ng Ru/10^6 A549 cell number
same,Intracellular content of Ru,"A549 cells [7]; 15 μM, 1 h",115.8±11.7 ng Ru/10^6 A549 cell number
same,Intracellular content of Ru,"A549 cells [7]; 15 μM, 3 h",159.4±8.5 ng Ru/10^6 A549 cell number
same,Intracellular content of Ru,"A549 cells [7]; 15 μM, 6 h",204.6±8.9 ng Ru/10^6 A549 cell number
same,Intracellular content of Ru,"A549 cells [7]; 20 μM, 1 h",138.7±15.3 ng Ru/10^6 A549 cell number
same,Intracellular content of Ru,"A549 cells [7]; 20 μM, 3 h",181.3±9.3 ng Ru/10^6 A549 cell number
same,Intracellular content of Ru,"A549 cells [7]; 20 μM, 6 h",235.2 ± 16.6 ng Ru/10^6 A549 cell number
same,"apoptotic features, Hoechst 33342 staining",A549 cells [8],"chromatin condensation, nuclear fragmentation, and plasma membrane blebbing"
same,change in UV-Vis absorption spectra (solution stability),[9],no significant change
same,IC50,MCF-7 (breast cancer); 48 h,45.7 ± 3.7 µM
same,early apoptotic cells (I4),A549 cells [10]; 5 μM,2.79%
same,late apoptotic/necrotic cells (I2),A549 cells [10]; 5 μM,0.00%
same,early apoptotic cells (I4),A549 cells [10]; 10 μM,15.83%
same,early apoptotic cells (I4),A549 cells [10]; 20 μM,15.47%
same,late apoptotic/necrotic cells (I2),A549 cells [10]; 20 μM,10.19%
same,MFI higher than the control group,A549 cells [11],~1.9 fold
same,IC50,[12]; 48 h,26.4 ± 2.1 µM
"O=C(O)c1ccccc1O [SA, salicylic acid]",IC50,"[5]; Homo sapiens, HeLa",> 200 µM
same,IC50,"[6]; Homo sapiens, A549",> 200 µM
same,IC50,"MCF-7 (breast cancer); Homo sapiens, MCF7, 48 h",> 200 µM
same,IC50,"[12]; Homo sapiens, HepG2, 48 h",> 200 µM
CC(=O)C=C(C)[O-].[Cl-].[Ru+2].c1ccc(CCSCCSCCc2ccccn2)nc1 [[Ru(acac)(pdto)]Cl],IC50,E. histolytica,0.06 µM
